Experimental data from ChEMBL document CHEMBL4382233, “Discovery of novel arylethenesulfonyl fluorides as potential candidates against methicillin-resistant of Staphylococcus aureus (MRSA) for overcoming multidrug resistance of bacterial infections” (2019).
≈ marks a conversion by molar mass, not a printed value.

What was measured:
Type in all cases: functional
Staphylococcus aureus [1] = test: Antibacterial activity against methicillin-resistant Staphylococcus aureus after overnight incubation by micro broth dilution analysis
[2] = system: Staphylococcus epidermidis; test: Antibacterial activity against methicillin-resistant Staphylococcus epidermidis after overnight incubation by micro broth dilution analysis
[3] = system: Staphylococcus haemolyticus; test: Antibacterial activity against methicillin-resistant Staphylococcus haemolyticus after overnight incubation by micro broth dilution analysis
Staphylococcus aureus [4] = test: Antibacterial activity against methicillin-resistant Staphylococcus aureus assessed as zone of inhibition at 50 ug/mL after 24 hrs by agar disc diffusion method; details: read-out: IZ
[5] = system: Staphylococcus epidermidis; test: Antibacterial activity against methicillin-resistant Staphylococcus epidermidis assessed as zone of inhibition at 20 ug/mL after 24 hrs by agar disc diffusion method; details: read-out: IZ
[6] = system: Staphylococcus epidermidis; test: Antibacterial activity against methicillin-resistant Staphylococcus epidermidis assessed as zone of inhibition at 200 ng/mL after 24 hrs by agar disc diffusion method; details: read-out: IZ
[7] = system: Staphylococcus epidermidis; test: Antibacterial activity against methicillin-resistant Staphylococcus epidermidis assessed as zone of inhibition at 400 ng/mL after 24 hrs by agar disc diffusion method; details: read-out: IZ
[8] = system: Staphylococcus epidermidis; test: Antibacterial activity against methicillin-resistant Staphylococcus epidermidis assessed as zone of inhibition at 800 ng/mL after 24 hrs by agar disc diffusion method; details: read-out: IZ
[9] = system: Staphylococcus haemolyticus; test: Antibacterial activity against methicillin-resistant Staphylococcus haemolyticus assessed as zone of inhibition at 50 ug/mL after 24 hrs by agar disc diffusion method; details: read-out: IZ
Staphylococcus aureus [10] = test: Antibacterial activity against methicillin-resistant Staphylococcus aureus assessed as zone of inhibition at 200 ng/mL after 24 hrs by agar disc diffusion method; details: read-out: IZ
Staphylococcus aureus [11] = test: Antibacterial activity against methicillin-resistant Staphylococcus aureus assessed as zone of inhibition at 400 ng/mL after 24 hrs by agar disc diffusion method; details: read-out: IZ
Staphylococcus aureus [12] = test: Antibacterial activity against methicillin-resistant Staphylococcus aureus assessed as zone of inhibition at 800 ng/mL after 24 hrs by agar disc diffusion method; details: read-out: IZ
[13] = system: Staphylococcus haemolyticus; test: Antibacterial activity against methicillin-resistant Staphylococcus haemolyticus assessed as zone of inhibition at 200 ng/mL after 24 hrs by agar disc diffusion method; details: read-out: IZ
[14] = system: Staphylococcus haemolyticus; test: Antibacterial activity against methicillin-resistant Staphylococcus haemolyticus assessed as zone of inhibition at 400 ng/mL after 24 hrs by agar disc diffusion method; details: read-out: IZ
[15] = system: Staphylococcus haemolyticus; test: Antibacterial activity against methicillin-resistant Staphylococcus haemolyticus assessed as zone of inhibition at 800 ng/mL after 24 hrs by agar disc diffusion method; details: read-out: IZ

Row | Structure (SMILES) | MIC99 (Staphylococcus aureus [1]) | MIC99 [2] | MIC99 [3] | zone of inhibition at 50 µg/mL (Staphylococcus aureus [4]) | zone of inhibition at 20 µg/mL [5] | zone of inhibition at 0.2 µg/mL [6] | zone of inhibition at 0.4 µg/mL [7] | zone of inhibition at 0.8 µg/mL [8] | zone of inhibition at 50 µg/mL [9] | zone of inhibition at 0.2 µg/mL (Staphylococcus aureus [10]) | zone of inhibition at 0.4 µg/mL (Staphylococcus aureus [11]) | zone of inhibition at 0.8 µg/mL (Staphylococcus aureus [12]) | zone of inhibition at 0.2 µg/mL [13] | zone of inhibition at 0.4 µg/mL [14] | zone of inhibition at 0.8 µg/mL [15]
1 | O=S(=O)(F)/C=C/c1ccc(OC(F)(F)F)cc1 | 40.2 µg/mL (≈ 149 µM) | 0.81 µg/mL (≈ 3 µM) | 61.2 µg/mL (≈ 227 µM) | 6.1 mm | 17.6 mm | 7.1 mm | 8.3 mm | 10.4 mm | 4.3 mm | – | – | – | – | – | –
2 | Cc1cccc(/C=C/S(=O)(=O)F)c1 | 0.844 µg/mL (≈ 4.22 µM) | 57.2 µg/mL (≈ 286 µM) | 0.812 µg/mL (≈ 4.06 µM) | 10.1 mm | 3.5 mm | – | – | – | 12.2 mm | 4.3 mm | 5.2 mm | 6.2 mm | 6.1 mm | 8.2 mm | 10.3 mm
3 | CC(=O)c1ccc(/C=C/S(=O)(=O)F)cc1 | 0.822 µg/mL (≈ 3.6 µM) | 54.2 µg/mL (≈ 237 µM) | 0.84 µg/mL (≈ 3.68 µM) | 14.1 mm | 6.5 mm | – | – | – | 7.2 mm | 6.2 mm | 8.2 mm | 10.2 mm | 3.3 mm | 5.2 mm | 6.1 mm
4 | Cc1ccccc1/C=C/S(=O)(=O)F | 0.849 µg/mL (≈ 4.24 µM) | 17.2 µg/mL (≈ 85.8 µM) | 54.1 µg/mL (≈ 270 µM) | 15.4 mm | 15.3 mm | 2.2 mm | 3.4 mm | 4.5 mm | 5.4 mm | 4.2 mm | 5.1 mm | 6.4 mm | – | – | –
5 | O=S(=O)(F)/C=C/C=C/c1cccc(C(F)(F)F)c1 | 44.1 µg/mL (≈ 157 µM) | 0.822 µg/mL (≈ 2.93 µM) | 55 µg/mL (≈ 196 µM) | 6.2 mm | 8.5 mm | 6.2 mm | 7.1 mm | 8.5 mm | 4.5 mm | – | – | – | – | – | –
6 | O=S(=O)(F)/C=C/c1ccc(Br)cc1 | 48.2 µg/mL (≈ 182 µM) | 0.837 µg/mL (≈ 3.16 µM) | 66.1 µg/mL (≈ 249 µM) | 7.5 mm | 7.3 mm | 5.2 mm | 6.2 mm | 7.5 mm | 6.1 mm | – | – | – | – | – | –
7 | CC(=O)c1ccccc1/C=C/S(=O)(=O)F | 16.1 µg/mL (≈ 70.7 µM) | 0.816 µg/mL (≈ 3.58 µM) | 50.2 µg/mL (≈ 220 µM) | 8.2 mm | 10.2 mm | 3.3 mm | 4.2 mm | 10.5 mm | 4.1 mm | 3.5 mm | 4.1 mm | 5.4 mm | – | – | –
8 | CSc1ccc(/C=C/S(=O)(=O)F)cc1 | 41.1 µg/mL (≈ 177 µM) | 0.835 µg/mL (≈ 3.59 µM) | 0.838 µg/mL (≈ 3.61 µM) | 6.2 mm | 6.4 mm | – | – | – | 8.2 mm | – | – | – | 3.1 mm | 5.2 mm | 7.4 mm
9 | Cc1ccc(/C=C/S(=O)(=O)F)c(C)c1 | 43.1 µg/mL (≈ 201 µM) | 0.813 µg/mL (≈ 3.79 µM) | 43.3 µg/mL (≈ 202 µM) | 6.5 mm | 10.7 mm | 2.5 mm | 6.2 mm | 11.1 mm | 3.5 mm | – | – | – | – | – | –
10 | O=S(=O)(F)/C=C/c1cc(O)cc(O)c1 | 17 µg/mL (≈ 78 µM) | 0.846 µg/mL (≈ 3.88 µM) | 49 µg/mL (≈ 225 µM) | 12.2 mm | 9.3 mm | 3.1 mm | 4.2 mm | 6.2 mm | 4.2 mm | 3.5 mm | 4.2 mm | 4.5 mm | – | – | –
11 | O=[N+]([O-])c1ccccc1/C=C/C=C/S(=O)(=O)F | 47 µg/mL (≈ 183 µM) | 44 µg/mL (≈ 171 µM) | 16.2 µg/mL (≈ 62.8 µM) | 5.5 mm | 6.2 mm | – | – | – | 6.5 mm | – | – | – | 3.2 mm | 4.2 mm | 5.2 mm
12 | O=S(=O)(F)/C=C/C=C/c1cccc(F)c1 | 48 µg/mL (≈ 209 µM) | 0.82 µg/mL (≈ 3.56 µM) | 50.1 µg/mL (≈ 218 µM) | 7.2 mm | 8.3 mm | 4.2 mm | 6.1 mm | 8.3 mm | 5.5 mm | – | – | – | – | – | –
13 | O=S(=O)(F)/C=C/c1cccc2c1sc1ccccc12 | 48.2 µg/mL (≈ 165 µM) | 55 µg/mL (≈ 188 µM) | 66 µg/mL (≈ 226 µM) | 8.1 mm | 4.1 mm | – | – | – | 4.5 mm | 3.5 mm | 4.4 mm | 4.5 mm | – | – | –
14 | O=S(=O)(F)/C=C/c1cc2ccccc2s1 | 55 µg/mL (≈ 227 µM) | 70.2 µg/mL (≈ 290 µM) | 63.1 µg/mL (≈ 261 µM) | 8.2 mm | 5.2 mm | – | – | – | 4.5 mm | 4.4 mm | 6.3 mm | 8.5 mm | – | – | –
15 | COc1cc(/C=C/C=C/S(=O)(=O)F)cc(OC)c1 | 61.1 µg/mL (≈ 225 µM) | 57.1 µg/mL (≈ 210 µM) | 56.6 µg/mL (≈ 208 µM) | 16.1 mm | 4.1 mm | – | – | – | 4.2 mm | 5.2 mm | 7.1 mm | 8.5 mm | – | – | –
16 | O=S(=O)(F)/C=C/c1cccc(F)c1 | 15.2 µg/mL (≈ 74.3 µM) | 72.3 µg/mL (≈ 354 µM) | 44.1 µg/mL (≈ 216 µM) | 9.1 mm | 3.5 mm | – | – | – | 4.2 mm | 3.5 mm | 4.4 mm | 5.1 mm | – | – | –
17 | O=S(=O)(F)/C=C/c1ccc(C(F)(F)F)cc1 | 0.815 µg/mL (≈ 3.21 µM) | 0.812 µg/mL (≈ 3.19 µM) | 60.2 µg/mL (≈ 237 µM) | 9.1 mm | 12.1 mm | 9.1 mm | 10.1 mm | 11.4 mm | 3.5 mm | 6.2 mm | 10.1 mm | 15.1 mm | – | – | –
18 | CC(C)c1cccc(/C=C/S(=O)(=O)F)c1 | 16.1 µg/mL (≈ 70.3 µM) | 0.81 µg/mL (≈ 3.55 µM) | 43 µg/mL (≈ 189 µM) | 20.1 mm | 18 mm | 9.2 mm | 12.2 mm | 15.1 mm | 4.2 mm | 3.1 mm | 3.5 mm | 4.2 mm | – | – | –
19 | O=S(=O)(F)/C=C/c1ccc(F)cc1 | 16.1 µg/mL (≈ 79 µM) | 61.1 µg/mL (≈ 299 µM) | 57.3 µg/mL (≈ 281 µM) | 10.1 mm | 5.2 mm | – | – | – | 4.2 mm | 3.5 mm | 4.1 mm | 4.5 mm | – | – | –
